Experimental data from US20130324532A1 (priority 2011, published 2013).
Read-outs that look alike come from different tables or passages of the source.

Tests used:
[1] = target: FAK enzyme (catalytic domain, amino acids 411-686) (Homo sapiens, UniProt Q05397); assay: biochemical
[2] = target: N-terminally GST-fused purified FAK enzyme (Homo sapiens, UniProt Q05397); assay: biochemical
Experimental: Binding parameters of compounds were determined using a Biacore™ S51 sensor. An anti-GST antibody was immobilized onto a CM5 chip by primary amine-coupling in accordance with the manufacturer's recommendations.
Concentration series' of the test compounds were injected over the spots at 25° C.
After the injection cycle of a compound the chip surface was regenerated with 10 mM glycine-HCl, pH2.2 before capturing the enzyme again.

[3] = target: T1, VEGFR3 cytoplasmic domain (Homo sapiens, UniProt P35916, DEL949-1002); assay: biochemical
T1 construct: VEGFR3 cytoplasmic domain (amino acids 798-1298) was purchased as N-terminal GST-fusion protein; purchased
T1 sequence (P35916 with tags, fused parts or gaps DEL949-1002): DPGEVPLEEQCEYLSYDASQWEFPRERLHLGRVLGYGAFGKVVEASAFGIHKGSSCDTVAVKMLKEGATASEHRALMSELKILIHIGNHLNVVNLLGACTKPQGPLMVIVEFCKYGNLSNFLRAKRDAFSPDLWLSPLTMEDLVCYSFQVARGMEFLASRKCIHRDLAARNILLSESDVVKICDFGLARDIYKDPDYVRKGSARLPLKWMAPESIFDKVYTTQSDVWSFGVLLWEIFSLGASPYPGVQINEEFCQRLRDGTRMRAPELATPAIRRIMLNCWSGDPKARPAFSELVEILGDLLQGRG

[4] = tested on: MDA-231-LNA cells; assay: cells; details: 72 h
[5] = target: VEGFR3 cytoplasmic domain (Homo sapiens, UniProt P35916); assay: biochemical
Chain of VEGFR3 cytoplasmic domain (Homo sapiens, UniProt P35916) (P35916 other isoform, or with tags, fused parts or gaps): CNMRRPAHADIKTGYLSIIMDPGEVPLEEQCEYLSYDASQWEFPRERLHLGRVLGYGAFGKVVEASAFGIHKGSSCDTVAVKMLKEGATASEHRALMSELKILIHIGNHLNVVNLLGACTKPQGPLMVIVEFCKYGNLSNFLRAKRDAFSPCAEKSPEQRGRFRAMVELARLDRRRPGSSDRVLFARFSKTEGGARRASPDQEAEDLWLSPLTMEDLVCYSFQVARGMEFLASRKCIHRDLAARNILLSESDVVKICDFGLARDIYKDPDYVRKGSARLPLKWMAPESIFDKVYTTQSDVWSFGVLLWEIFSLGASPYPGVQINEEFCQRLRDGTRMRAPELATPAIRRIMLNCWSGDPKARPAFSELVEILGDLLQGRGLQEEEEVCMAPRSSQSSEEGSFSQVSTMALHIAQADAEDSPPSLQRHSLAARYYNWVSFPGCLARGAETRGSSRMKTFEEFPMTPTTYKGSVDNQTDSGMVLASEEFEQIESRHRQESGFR

[6] = target: T2, Phospho VEGFR3 (Flt4) in HMVEC-dLyAD cells (Homo sapiens, UniProt P35916); assay: Flt4 Phospho ELISA assay; format: cell-based
T2 construct: host or cells: HMVEC-dLyAD (adult human dermal lymphatic microvascular endothelial cells)
T2 sequence (P35916 25-1363): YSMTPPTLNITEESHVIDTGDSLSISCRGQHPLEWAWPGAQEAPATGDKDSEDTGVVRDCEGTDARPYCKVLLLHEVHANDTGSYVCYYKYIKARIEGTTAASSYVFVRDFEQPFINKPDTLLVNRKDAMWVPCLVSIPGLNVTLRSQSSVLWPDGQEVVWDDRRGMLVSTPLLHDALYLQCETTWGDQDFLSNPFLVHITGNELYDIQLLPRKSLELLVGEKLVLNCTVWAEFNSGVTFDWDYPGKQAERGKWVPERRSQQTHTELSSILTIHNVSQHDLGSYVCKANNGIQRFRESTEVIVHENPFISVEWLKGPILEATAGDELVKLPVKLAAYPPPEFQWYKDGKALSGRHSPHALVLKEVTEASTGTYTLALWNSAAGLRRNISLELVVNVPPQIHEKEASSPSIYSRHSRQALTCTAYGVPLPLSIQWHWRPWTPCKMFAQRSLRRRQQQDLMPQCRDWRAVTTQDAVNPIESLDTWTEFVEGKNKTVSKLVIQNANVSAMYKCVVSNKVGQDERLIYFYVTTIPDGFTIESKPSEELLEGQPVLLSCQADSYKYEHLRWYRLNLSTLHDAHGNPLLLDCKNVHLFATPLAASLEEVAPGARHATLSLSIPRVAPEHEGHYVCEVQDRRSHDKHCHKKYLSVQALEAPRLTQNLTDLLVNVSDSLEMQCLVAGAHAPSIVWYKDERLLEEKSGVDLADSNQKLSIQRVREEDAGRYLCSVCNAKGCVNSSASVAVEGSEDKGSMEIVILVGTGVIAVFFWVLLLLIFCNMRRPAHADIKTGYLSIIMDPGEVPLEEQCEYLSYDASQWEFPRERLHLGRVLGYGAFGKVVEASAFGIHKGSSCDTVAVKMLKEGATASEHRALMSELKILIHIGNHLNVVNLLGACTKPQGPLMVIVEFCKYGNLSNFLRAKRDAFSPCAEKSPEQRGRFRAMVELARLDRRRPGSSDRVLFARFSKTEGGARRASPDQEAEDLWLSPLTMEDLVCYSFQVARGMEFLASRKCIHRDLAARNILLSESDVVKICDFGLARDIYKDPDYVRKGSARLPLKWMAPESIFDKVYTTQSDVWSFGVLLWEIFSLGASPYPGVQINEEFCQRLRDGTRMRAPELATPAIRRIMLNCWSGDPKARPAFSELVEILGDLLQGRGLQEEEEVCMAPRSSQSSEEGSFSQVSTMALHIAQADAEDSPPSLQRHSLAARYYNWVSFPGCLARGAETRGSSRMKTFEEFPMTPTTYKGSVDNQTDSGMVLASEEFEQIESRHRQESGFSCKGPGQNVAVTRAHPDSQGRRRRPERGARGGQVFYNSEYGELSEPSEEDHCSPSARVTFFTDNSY
Experimental: The ability of compounds of the invention to inhibit VEGFR3 within cells can be assessed with an ELISA type assay.
The plates were covered and incubated at room temperature overnight.
300 μL of Blocking buffer (5% v/v Tween 20, 5% w/v sucrose in PBS) was then added to wells and plate incubated for 2 hours at room temperature. Blocking solution is flicked out and plates washed three times and tapped dry.
Compound dilution series were prepared in Endogro basal (Cat # SCME-BM, Millipore)+0.1% BSA (Cat#A8412, Sigma) with constant 0.1% DMSO concentration. 439 μL of sample or vehicle control was added to the cell monolayers.
130 μL of Lysis buffer added to wells and cell lysate harvested and transferred to tubes and stored on ice.
The plates were then washed three times in wash buffer as described above and tapped dry. […]
Total VEGFR3 levels were quantified using a Multiskan Ascent plate reader and Ascent software fitted with 450 nm filter. […]
Phospho VEGFR3 levels were quantified using a Multiscan ascent plate reader and ascent software fitted with 450 nm filter.
where SRP is the Sample Relative Phospho level, SP is Phospho VEGFR3 reading and ST is Total VEGFR3 reading.
Percent inhibition (% I) for each lysate relative to vehicle control (VEGF-C stimulated) is then calculated according to the following formula:
where SRP is the Sample Relative Phospho level as calculated above. […]

[7] = tested on: HeyA8, SKOV3ip1, and HeyA8-MDR models; details: cited from earlier work
[8] = tested on: taxane-sensitive (SKOV3ip1 and HeyA8) and taxane-resistant (HeyA8-MDR) ovarian cancer cell lines; details: in vitro; cited from earlier work

Chain of FAK enzyme (catalytic domain, amino acids 411-686) (Q05397 411-686, species assumed): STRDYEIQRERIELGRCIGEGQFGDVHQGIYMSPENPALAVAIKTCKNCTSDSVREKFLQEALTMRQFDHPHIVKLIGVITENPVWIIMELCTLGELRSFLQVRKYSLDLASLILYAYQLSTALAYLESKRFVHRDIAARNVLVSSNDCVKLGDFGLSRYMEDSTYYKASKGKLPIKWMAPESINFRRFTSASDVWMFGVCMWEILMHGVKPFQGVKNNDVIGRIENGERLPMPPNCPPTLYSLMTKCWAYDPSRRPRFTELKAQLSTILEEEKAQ
Chain of N-terminally GST-fused purified FAK enzyme (Q05397 whole entry, the tested form may be a part): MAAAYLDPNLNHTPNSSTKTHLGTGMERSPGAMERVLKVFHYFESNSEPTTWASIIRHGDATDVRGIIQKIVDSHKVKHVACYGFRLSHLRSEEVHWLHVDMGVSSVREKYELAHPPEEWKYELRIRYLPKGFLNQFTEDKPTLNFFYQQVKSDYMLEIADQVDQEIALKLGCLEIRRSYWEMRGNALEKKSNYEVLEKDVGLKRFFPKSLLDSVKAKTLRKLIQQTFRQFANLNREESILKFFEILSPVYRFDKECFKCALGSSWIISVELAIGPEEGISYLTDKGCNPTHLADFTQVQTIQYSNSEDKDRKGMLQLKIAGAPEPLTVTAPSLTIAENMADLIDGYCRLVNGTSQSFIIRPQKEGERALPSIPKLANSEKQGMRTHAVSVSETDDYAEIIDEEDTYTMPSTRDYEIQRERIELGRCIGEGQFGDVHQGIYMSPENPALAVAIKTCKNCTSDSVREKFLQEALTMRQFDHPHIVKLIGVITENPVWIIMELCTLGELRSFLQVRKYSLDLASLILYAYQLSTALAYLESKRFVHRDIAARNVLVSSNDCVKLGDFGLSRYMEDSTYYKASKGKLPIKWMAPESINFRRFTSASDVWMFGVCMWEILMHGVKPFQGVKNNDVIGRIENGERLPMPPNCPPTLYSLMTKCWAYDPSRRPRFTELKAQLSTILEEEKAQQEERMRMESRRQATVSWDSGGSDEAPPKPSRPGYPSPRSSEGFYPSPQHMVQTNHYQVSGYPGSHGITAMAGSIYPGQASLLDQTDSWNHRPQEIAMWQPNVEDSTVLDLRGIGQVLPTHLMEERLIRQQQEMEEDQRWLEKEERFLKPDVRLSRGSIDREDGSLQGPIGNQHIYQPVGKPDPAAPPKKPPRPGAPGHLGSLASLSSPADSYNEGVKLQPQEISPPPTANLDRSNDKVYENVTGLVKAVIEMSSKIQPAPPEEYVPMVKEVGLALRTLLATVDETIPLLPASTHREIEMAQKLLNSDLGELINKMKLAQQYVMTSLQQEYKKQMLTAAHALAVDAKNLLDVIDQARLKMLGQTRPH

| SMILES | IC50 [1] | Kd [2] | IC50 [4] | further results |
| --- | --- | --- | --- | --- |
| NC(=O)Cc1ccccc1CCc1nc(Nc2ccc(N3CCNCC3)cc2)ncc1C(F)(F)F [Compound 1, 2-(2-(2-(2-((4-(piperazin-1-yl)phenyl)amino)-5-(trifluoromethyl)pyrimidin-4-yl)ethyl)phenyl)acetamide] | 2.1 nM | 0.49 nM | – | – |
| CN1CCN(c2ccc(Nc3ncc(C(F)(F)F)c(CCc4cccc(C(N)=O)c4)n3)cc2)CC1 [Compound 2, 3-(2-(2-((4-(4-Methylpiperazin-1-yl)phenyl)amino)-5-(trifluoromethyl)pyrimidin-4-yl)ethyl)benzamide] | 2.5 nM | 1.5 nM | 3210 nM | IC50 ([3]; modified form (*): N-terminal Hexa-His-fusion protein, amino acids 818-1177 lacking 949-1002, read-out: IC50): 120 nM |
| CN1CCN(c2ccc(Nc3ncc(C(F)(F)F)c(CCc4ccccc4CC(N)=O)n3)cc2)CC1 [Compound 3] | 1.9 nM | 0.91 nM | – | – |
| NC(=O)Cc1ccccc1CCc1nc(Nc2ccc(C3CCCNC3)cc2)ncc1C(F)(F)F (centres unmarked) [Compound 4, 2-(2-(2-(2-((4-(Piperidin-3-yl)phenyl)amino)-5-(trifluoromethyl)pyrimidin-4-yl)ethyl)phenyl)acetamide] | 1.5 nM | 0.73 nM | – | – |
| CN1CCN(c2cccc(Nc3ncc(C(F)(F)F)c(CCc4cccc(C(N)=O)c4)n3)c2)CC1 [Compound 6, 3-(2-(2-((3-(4-Methylpiperazin-1-yl)phenyl)amino)-5-(trifluoromethyl)pyrimidin-4-yl)ethyl)benzamide] | 4.2 nM | 6.3 nM | 3910 nM | IC50 [5]: 52 nM |
| NC(=O)Cc1ccccc1CCc1nc(Nc2ccc(C3CCCCN3)cc2)ncc1C(F)(F)F (centres unmarked) [Compound 8, 2-(2-(2-(2-((4-(Piperidin-2-yl)phenyl)amino)-5-(trifluoromethyl)pyrimidin-4-yl)ethyl)phenyl)acetamide] | 6.1 nM | 1 nM | – | – |
| CN1CCCCC1c1ccc(Nc2ncc(C(F)(F)F)c(CCc3ccccc3CC(N)=O)n2)cc1 (centres unmarked) [Compound 9] | 7 nM | 7 nM | – | – |
| NC(=O)Cc1ccccc1CCc1nc(Nc2ccc(C3CCNCC3)cc2)ncc1C(F)(F)F [Compound 11, 2-(2-(2-(2-((4-(Piperidin-4-yl)phenyl)amino)-5-(trifluoromethyl)pyrimidin-4-yl)ethyl)phenyl)acetamide] | 3 nM | 0.61 nM | – | – |
| CC(C(N)=O)c1ccccc1CCc1nc(Nc2ccc(C3CCNCC3)cc2)ncc1C(F)(F)F (centres unmarked) [Compound 12, 2-(2-(2-(2-((4-(Piperidin-4-yl)phenyl)amino)-5-(trifluoromethyl)pyrimidin-4-yl)ethyl)phenyl)propanamide] | 6.3 nM | 0.92 nM | – | – |
| CNC(=O)Cc1ccccc1CCc1nc(Nc2ccc(N3CCNCC3)cc2)ncc1C(F)(F)F [Compound 14, N-Methyl-2-(2-(2-(2-((4-(piperazin-1-yl)phenyl)amino)-5-(trifluoromethyl)pyrimidin-4-yl)ethyl)phenyl)acetamide] | 21 nM | 6.1 nM | 4490 nM | IC50 [5]: 101 nM |
| O=C1NCc2cccc(CCc3nc(Nc4ccc(N5CCNCC5)cc4)ncc3C(F)(F)F)c21 [Compound 15, 7-(2-(2-((4-(piperazin-1-yl)phenyl)amino)-5-(trifluoromethyl)pyrimidin-4-yl)ethyl)isoindolin-1-one] | 18 nM | 5 nM | 2370 nM | IC50 ([5]; read-out: IC50): 37 nM |
| CN1CCN(c2cccc(Nc3ncc(C(F)(F)F)c(CCc4ccccc4CC(N)=O)n3)c2)CC1 [Compound 17, 2-(2-(2-(2-((3-(4-Methylpiperazin-1-yl)phenyl)amino)-5-(trifluoromethyl)pyrimidin-4-yl)ethyl)phenyl)acetamide] | 3.4 nM | 3.5 nM | 3510 nM | IC50 [5]: 31 nM; IC50 [6]: 44 nM |
| CNC(=O)Cc1ccccc1CCc1nc(Nc2cccc(N3CCN(C)CC3)c2)ncc1C(F)(F)F [Compound 18] | 13 nM | 13 nM | > 5000 nM | IC50 [5]: 664 nM |
| Cc1ccc(CCc2nc(Nc3ccc(N4CCNCC4)cc3)ncc2C(F)(F)F)cc1C(N)=O [Compound 19, 2-Methyl-5-(2-(2-((4-(piperazin-1-yl)phenyl)amino)-5-(trifluoromethyl)pyrimidin-4-yl)ethyl)benzamide] | 7.7 nM | 7.8 nM | 1490 nM | IC50 [5]: 37 nM |
| NC(=O)Cc1ccccc1CCc1nc(Nc2ccc(N3CCC(N)CC3)cc2)ncc1C(F)(F)F [Compound 20, 2-(2-(2-(2-((4-(4-Aminopiperidin-1-yl)phenyl)amino)-5-(trifluoromethyl)pyrimidin-4-yl)ethyl)phenyl)acetamide] | 0.81 nM | 0.63 nM | – | – |
| NC(=O)Cc1ccccc1CCc1nc(Nc2ccc3c(c2)CCNC3)ncc1C(F)(F)F [Compound 21, 2-(2-(2-(2-((1,2,3,4-Tetrahydroisoquinolin-6-yl)amino)-5-(trifluoromethyl)pyrimidin-4-yl)ethyl)phenyl)acetamide] | 2.4 nM | 0.44 nM | – | – |
| NC(=O)Cc1ccccc1CCc1nc(Nc2ccc(C3CNCCO3)cc2)ncc1C(F)(F)F (centres unmarked) [Compound 22, 2-(2-(2-(2-((4-(morpholin-2-yl)phenyl)amino)-5-(trifluoromethyl)pyrimidin-4-yl)ethyl)phenyl)acetamide] | 2.8 nM | 0.99 nM | – | – |
| NC(=O)Cc1ccccc1CCc1nc(Nc2ccc(CN3CCNCC3)cc2)ncc1C(F)(F)F [Compound 25, 2-(2-(2-(2-((4-(piperazin-1-ylmethyl)phenyl)amino)-5-(trifluoromethyl)pyrimidin-4-yl)ethyl)phenyl)acetamide] | – | – | 2890 nM | – |
| NC(=O)Cc1nccnc1CCc1nc(Nc2ccc(C3CCNCC3)cc2)ncc1C(F)(F)F [Compound 26, 2-(3-(2-(2-((4-(Piperidin-4-yl)phenyl)amino)-5-(trifluoromethyl)pyrimidin-4-yl)ethyl)pyrazin-2-yl)acetamide] | 20 nM | 14 nM | – | – |
| NC(=O)Cc1cncnc1CCc1nc(Nc2ccc(C3CCNCC3)cc2)ncc1C(F)(F)F [Compound 29, 2-(4-(2-(2-((4-(Piperidin-4-yl)phenyl)amino)-5-(trifluoromethyl)pyrimidin-4-yl)ethyl)pyrimidin-5-yl)acetamide] | 11 nM | 12.1 nM | – | – |
| CCN1CCC(c2ccc(Nc3ncc(C(F)(F)F)c(CCc4ccccc4CC(N)=O)n3)cc2)CC1 [Compound 31, 2-(2-(2-(2-((4-(1-Ethylpiperidin-4-yl)phenyl)amino)-5-(trifluoromethyl)pyrimidin-4-yl)ethyl)phenyl)acetamide] | – | 1 nM | – | – |
| CN1CCC(c2ccc(Nc3ncc(C(F)(F)F)c(CCc4cc(C(N)=O)ccn4)n3)cc2)CC1 [Compound 34, 2-(2-(2-((4-(1-Methylpiperidin-4-yl)phenyl)amino)-5-(trifluoromethyl)pyrimidin-4-yl)ethyl)isonicotinamide] | 5.7 nM | 5 nM | 7850 nM | IC50 [3]: 184 nM |
| CN1CCN(Cc2ccc(Nc3ncc(C(F)(F)F)c(CCc4ccccc4CC(N)=O)n3)cc2)CC1 [Compound 36, 2-(2-(2-(2-((4-((4-Methylpiperazin-1-yl)methyl)phenyl)amino)-5-(trifluoromethyl)pyrimidin-4-yl)ethyl)phenyl)acetamide] | 2.3 nM | 0.48 nM | 5620 nM | IC50 [5]: 16 nM; IC50 [6]: 169 nM |
| NC(=O)c1cccc(CCc2nc(Nc3ccc(CN4CCNCC4)cc3)ncc2C(F)(F)F)c1 [Compound 37, 3-(2-(2-((4-(piperazin-1-ylmethyl)phenyl)amino)-5-(trifluoromethyl)pyrimidin-4-yl)ethyl)benzamide] | 15 nM | – | 2790 nM | IC50 [5]: 254 nM |
| CNC(=O)c1ccccc1Nc1nc(Nc2ccc(N3CCOCC3)cc2OC)ncc1Cl [TAE226] | – | – | – | reduced tumour burden compared with vehicle-treated controls ([7]; TAE226 alone, HeyA8, SKOV3ip1, HeyA8-MDR models): 46-64%; tumour burden reduction ([7]; concomitant administration of TAE226 and docetaxel, all three models): 85-97%; survival in tumour-bearing mice ([7]; in combination with docetaxel): significantly prolonged survival; phosphorylation of FAK at both Y397 and Y861 sites [8]: inhibited |
